# From publication PMC6021035, “Insights into biological activity of ureidoamides with primaquine and amino acid moieties” (Journal of Enzyme Inhibition and Medicinal Chemistry, 2018)
# How the values were obtained:
# [1] = tested on: Aspergillus niger ATCC 16404; experiment: MIC determination (broth micro-dilution); format: cell-based; conditions: ATCC16404
# Method: (§1) Before analysis, compounds 5a–f were dissolved in 96% ethanol in a concentration of 2 mg/ml as stock solutions. Inoculums were prepared with fresh cultures of microbial strains, cultured on tryptic-soy agar or Sabouraud 2% (m/v) dextrose agar for 18 h (48–72 h for fungi) at 30 °C with physiological saline containing approximately […]. Inoculum density (0.5 McFarland units) was adjusted with a bio Mériex (France) densitometer. Minimum inhibitory concentration (MIC) was determined by the twofold micro-dilution method in Mu¨ller–Hinton broth for bacterial strains and RPMI 1640 + 2% m/v dextrose for fungi according to the EUCAST recommendations in a sterile 96-well flat-bottom plastic tissue culture plate. MIC was determined using a linear regression curve after incubation of compounds and reading the optical density at 570 nm using an iEMS microplate reader. […] All tests were performed in triplicate and expressed as the mean.
# [2] = tested on: Bacillus cereus ATCC 11778; experiment: MIC determination (broth micro-dilution); format: cell-based; conditions: ATCC11778
# Method: as §1
# [3] = tested on: Bacillus subtilis ATCC 6633; experiment: MIC determination (broth micro-dilution); format: cell-based; conditions: ATCC6633
# Method: as §1
# [4] = tested on: Burkholderia caepacia ATCC 25416; experiment: MIC determination (broth micro-dilution); format: cell-based; conditions: ATCC25416
# Method: as §1
# [5] = tested on: Candida albicans ATCC 10231; experiment: MIC determination (broth micro-dilution); format: cell-based; conditions: ATCC10231
# Method: as §1
# [6] = tested on: Candida albicans ATCC 90028; experiment: MIC determination (broth micro-dilution); format: cell-based; conditions: ATCC90028
# Method: as §1
# Candida kefyr ATCC 2512 = experiment: MIC determination (broth micro-dilution); format: cell-based; conditions: Kluyveromyces marxianus, ATCC2512
# Method: as §1
# [7] = tested on: Candida krusei ATCC 14243; experiment: MIC determination (broth micro-dilution); format: cell-based; conditions: Pichia kudriavzevii, ATCC14243
# Method: as §1
# [8] = tested on: Candida parapsylosis ATCC 22019; experiment: MIC determination (broth micro-dilution); format: cell-based; conditions: ATCC22019
# Method: as §1
# [9] = tested on: Candida tropicalis ATCC 750; experiment: MIC determination (broth micro-dilution); format: cell-based; conditions: ATCC750
# Method: as §1
# [10] = tested on: Enterococcus faecalis ATCC 29212; experiment: MIC determination (broth micro-dilution); format: cell-based; conditions: ATCC29212
# Method: as §1
# [11] = tested on: Enterococcus hyrae ATCC 8043; experiment: MIC determination (broth micro-dilution); format: cell-based; conditions: ATCC8043
# Method: as §1
# [12] = tested on: Escherichia coli ATCC 10536; experiment: MIC determination (broth micro-dilution); format: cell-based; conditions: ATCC10536
# Method: as §1
# [13] = tested on: Escherichia coli ATCC 8739; experiment: MIC determination (broth micro-dilution); format: cell-based; conditions: ATCC8739
# Method: as §1
# [14] = tested on: Issatchenkia orientalis Kudrjanzev ATCC 6258; experiment: MIC determination (broth micro-dilution); format: cell-based; conditions: Pichia kudriavzevii, ATCC6258
# Method: as §1
# [15] = tested on: Kocuria rhizophila ATCC 9341; experiment: MIC determination (broth micro-dilution); format: cell-based; conditions: ATCC9341
# Method: as §1
# [16] = tested on: Pseudomonas aeruginosa ATCC 27853; experiment: MIC determination (broth micro-dilution); format: cell-based; conditions: ATCC27853
# Method: as §1
# [17] = tested on: Pseudomonas aeruginosa ATCC 9027; experiment: MIC determination (broth micro-dilution); format: cell-based; conditions: ATCC9027
# Method: as §1
# [18] = tested on: Staphylococcus aureus ATCC 25213; experiment: MIC determination (broth micro-dilution); format: cell-based; conditions: ATCC25213
# Method: as §1
# [19] = tested on: Staphylococcus aureus ATCC 25923; experiment: MIC determination (broth micro-dilution); format: cell-based; conditions: ATCC25923
# Method: as §1
# [20] = tested on: Staphylococcus aureus ATCC 6538; experiment: MIC determination (broth micro-dilution); format: cell-based; conditions: ATCC6538
# Method: as §1
# [21] = target: T1, soybean lipoxygenase (LOX) (Glycine max, UniProt P08170); experiment: In vitro soybean lipoxygenase (LOX) inhibition; format: biochemical
# T1 construct: purchased Sigma-Aldrich
# T1 sequence (P08170 1-839): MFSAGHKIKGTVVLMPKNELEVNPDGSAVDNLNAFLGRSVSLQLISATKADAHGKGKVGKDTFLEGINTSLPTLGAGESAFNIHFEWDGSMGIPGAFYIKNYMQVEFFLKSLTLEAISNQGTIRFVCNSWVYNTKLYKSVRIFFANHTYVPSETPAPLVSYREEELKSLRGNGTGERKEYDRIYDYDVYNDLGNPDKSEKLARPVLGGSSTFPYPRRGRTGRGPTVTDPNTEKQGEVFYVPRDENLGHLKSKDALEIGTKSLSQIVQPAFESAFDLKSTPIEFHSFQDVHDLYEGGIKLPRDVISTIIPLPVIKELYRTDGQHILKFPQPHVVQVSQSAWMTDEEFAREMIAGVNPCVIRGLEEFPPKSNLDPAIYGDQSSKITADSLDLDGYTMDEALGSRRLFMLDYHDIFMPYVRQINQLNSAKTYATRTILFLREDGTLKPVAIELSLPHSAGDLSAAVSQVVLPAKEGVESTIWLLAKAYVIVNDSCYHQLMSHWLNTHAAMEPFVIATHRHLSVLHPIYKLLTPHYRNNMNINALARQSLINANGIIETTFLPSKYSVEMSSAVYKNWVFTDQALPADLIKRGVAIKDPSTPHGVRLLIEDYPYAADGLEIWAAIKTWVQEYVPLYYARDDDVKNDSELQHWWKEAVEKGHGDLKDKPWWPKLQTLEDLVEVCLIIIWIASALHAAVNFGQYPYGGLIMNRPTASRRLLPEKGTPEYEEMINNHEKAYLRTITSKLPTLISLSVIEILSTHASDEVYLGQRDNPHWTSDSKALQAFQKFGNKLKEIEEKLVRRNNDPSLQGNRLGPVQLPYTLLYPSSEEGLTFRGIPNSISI
# Method: In vitro LOX inhibition assay was accomplished as described previously. Test compounds (stock solutions 10 mM in DMSO) were incubated at room temperature with sodium linoleate (0.1 mM) and 0.2 ml of LOX solution (0.1 mg in 10 ml saline). Conversion of sodium linoleate to 13-hydroperoxylinoleic acid was measured at 234 nm and compared to the reference inhibitor. Several concentrations were used for IC50 determination.
# S. aureus strains = experiment: MIC determination, S. aureus strains; format: cell-based, Staphylococcus aureus
# Method: as §1
# E. coli = experiment: MIC determination, E. coli as summarised in text; format: cell-based; conditions: Escherichia coli, both strains
# Method: as §1
Structure (SMILES),MIC [1] [µg/mL],MIC [2] [µg/mL],MIC [3] [µg/mL],MIC [4] [µg/mL],MIC [5] [µg/mL],MIC [6] [µg/mL],MIC (Candida kefyr ATCC 2512) [µg/mL],MIC [7] [µg/mL],MIC [8] [µg/mL],MIC [9] [µg/mL],MIC [10] [µg/mL],MIC [11] [µg/mL],MIC [12] [µg/mL],MIC [13] [µg/mL],MIC [14] [µg/mL],MIC [15] [µg/mL],MIC [16] [µg/mL],MIC [17] [µg/mL],MIC [18] [µg/mL],MIC [19] [µg/mL],other results
"COc1cc(NC(C)CCCNC(=O)NC(CC(C)C)C(=O)NC(c2ccccc2)c2ccccc2)c2ncccc2c1 (stereo not shown) [Compound 5a, N-(diphenylmethyl)-2-[({4-[(6-methoxyquinolin-8-yl)amino]pentyl}carbamoyl)amino]-4-methylpentanamide]",> 100,70,50,65,> 100,> 100,> 100,> 100,> 100,> 100,> 100,> 100,> 100,> 100,> 100,25,25,60,6.5,15,"MIC [20]: 12.5 µg/mL; LOX inhibition, per cent ([21]; 100 μΜ (footnotes a, c)): 40.0 ± 1.0^a^,^c per cent; MIC (S. aureus strains; Staphylococcus aureus, S. aureus strains, lowest value quoted in text): 6.5 µg/mL; MIC range (S. aureus strains; tested Staphylococcus spp.): 6.5 to 15 µg/mL; melting point: 184.5 to 185.5 °C"
"COc1cc(NC(C)CCCNC(=O)NC(C(=O)NC(c2ccccc2)c2ccc(Cl)cc2)c2ccc(Cl)cc2)c2ncccc2c1 (stereo not shown) [Compound 5e, 2–(4-chlorophenyl)-N-[(4-chlorophenyl)(phenyl)methyl]-2-[({4-[(6-methoxyquinolin-8-yl)amino]pentyl}carbamoyl)amino]acetamide]",> 100,> 100,> 100,> 100,> 100,> 100,> 100,> 100,> 100,> 100,> 100,> 100,45,60,> 100,> 100,> 100,> 100,> 100,> 100,"MIC [20]: > 100 µg/mL; IC50 ([21]; sodium linoleate 0.1 mM, read-out: LOX inhibition (IC50 μM) ± SD): 56 ± 2.3 µM; MIC (E. coli): 45 to 60 µg/mL; melting point: 150 to 151.5 °C"
